The values that follow come from patent US20210364497A1, “IFN-beta Reporter System for Primary Cells” (UNIVERSITY OF MIAMI, priority 2018, published 2021).

This assay deals with Human IFNβ promoter. Briefly: GLuc/SEAP dual reporter assay of the IFNβ promoter in hTERT-pIFNβ-GLuc cells. The assay is classed as cell-based. Conditions: FIG. 3B; hTERT-pIFNB-Gluc cells treated, 3 μg/ml, 24 hours. As to the method: Human IFNβ promoter (sequence in FIG. 1) was cloned into Lentiviral vector pEZX-LvPG04 at GeneCopoeia. Lentiviral plasmid was co-transfected with LentiViral Package System (LENT-PACT™) into 293T cells using Lipofectamine 2000. 293T medium containing Lentiviral particles was collected 48 hours post transfection, filtered through 0.2 μM filter, and transduced to pre-seeded hTERT cells in the presence of 10 μg/ml polybrene. Transduction was repeated twice in 2 consecutive days. 48 hours after the last transduction, hTERT cells were selected by 2 μg/ml puromycin for 4 weeks. Single colonies of transduced hTERT cells were puromycin selected, and expanded for IENβ promoter-luciferase assay validation.
To test the establishment of GLuc/SEAP-ρIENs1 reporter system, hTERT clones were mock treated (lipo) or transfected with synthetic double-stranded DNA (dsDNA). hTERT-ρIENβ-GLuc cells were transfected with synthetic 90-mer double-stranded DNA (dsDNA90) at 3 μg/ml using Lipofectamine 2000. 24 hours later, cell media was collected and analyzed for GLuc and SEAP activity using the Secrete-Pair Dual Luminescence Assay Kits (GeneCopoeia).
In additional experiments, hTERT-pIFNB-Gluc cells were treated with LPS1 (1 μg/ml) or transfected with dsDNA90 (3 μg/ml) or 2′-3′ cGAMP (3 μg/ml) for 24 hours. […]
In general terms: In a reporter assay the amount or activity of a reporter protein is the signal.

Turning to poly I:C, the “GLuc expression (Gluc activity normalized by SEAP internal control)” value is reported as “activated”.
